Experimental findings from ChEMBL document CHEMBL4831525, “Design, synthesis and biological evaluation of quinazoline derivatives as potent and selective FGFR4 inhibitors” (Eur J Med Chem, 2021) are described below.

Active and inactive are the calls of the source. The rule behind the calls is not given here.

The subject of one data set is Huh-7. In words: cells. As to conditions: Homo sapiens, Huh-7, 72 h.
The target in data set [1] is Fibroblast growth factor receptor 1 (Homo sapiens, UniProt P11362). Briefly: Inhibition of FGFR1 (unknown origin).
The target of data set [2] is Fibroblast growth factor receptor 2 (Homo sapiens, UniProt P21802). Briefly: Inhibition of FGFR2 (unknown origin).
The target in data set [3] is Fibroblast growth factor receptor 3 (Homo sapiens, UniProt P22607). Briefly: Inhibition of FGFR3 (unknown origin).
A short description of data set [4]: Stability of the compound in rat liver microsomes assessed as parent compound remaining incubated for 60 mins in presence of NADPH by LC-MS analysis. Type of data set: ADME, Microsome. As to conditions: read-out: Stability. In general terms: Liver microsomes are a subcellular fraction often used to study metabolism.
A further data set concerns Hep 3B2. In words: Induction of apoptosis in human Hep3B cells assessed as increase in cleaved PARP level at 3 to 20 uM by Western blot analysis. It counts as functional, cell-based. The note with it: dose 3-20 µM. On the technique in general: In western blotting, separated proteins are transferred to a membrane and probed.
Data set [5] has as its target T1, Fibroblast growth factor receptor 4 (Homo sapiens, UniProt P22455). Briefly: Inhibition of N-terminal GST fusion tagged human FGFR4 cytoplasmic domain (460 to 802 end residues) expressed in baculovirus expression system at 1 nM preincubated for 10 mins followed by substrate addition and further incubated for 30 mins in presence of ATP at Km concentration by caliper mobility shift assay relative to control. The note with it: time 40.0 min.
Target sequence in this assay (P22455 22-802 limits assumed): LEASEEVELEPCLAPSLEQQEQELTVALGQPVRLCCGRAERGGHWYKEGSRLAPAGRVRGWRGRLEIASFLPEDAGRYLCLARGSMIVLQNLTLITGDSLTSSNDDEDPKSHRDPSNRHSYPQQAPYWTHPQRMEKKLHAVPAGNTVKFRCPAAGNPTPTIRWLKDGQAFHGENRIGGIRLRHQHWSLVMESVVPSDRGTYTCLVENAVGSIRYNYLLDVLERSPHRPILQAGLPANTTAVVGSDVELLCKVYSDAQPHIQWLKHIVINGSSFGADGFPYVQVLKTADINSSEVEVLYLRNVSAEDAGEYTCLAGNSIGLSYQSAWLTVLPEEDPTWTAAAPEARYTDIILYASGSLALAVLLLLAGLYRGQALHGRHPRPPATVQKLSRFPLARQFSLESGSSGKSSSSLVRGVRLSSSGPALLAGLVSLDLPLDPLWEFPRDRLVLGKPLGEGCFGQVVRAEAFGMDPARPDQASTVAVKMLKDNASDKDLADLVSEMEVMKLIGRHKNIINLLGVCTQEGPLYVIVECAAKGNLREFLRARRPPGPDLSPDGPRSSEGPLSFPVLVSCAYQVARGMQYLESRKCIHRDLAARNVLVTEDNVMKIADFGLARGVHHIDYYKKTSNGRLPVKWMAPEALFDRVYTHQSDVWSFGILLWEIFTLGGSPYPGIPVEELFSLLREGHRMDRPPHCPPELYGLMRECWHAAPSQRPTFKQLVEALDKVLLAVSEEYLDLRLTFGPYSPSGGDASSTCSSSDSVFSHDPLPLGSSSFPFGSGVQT

Data set [6] addresses T1, Fibroblast growth factor receptor 4.
Target sequence in this assay (P22455 whole entry, the tested form may be a part): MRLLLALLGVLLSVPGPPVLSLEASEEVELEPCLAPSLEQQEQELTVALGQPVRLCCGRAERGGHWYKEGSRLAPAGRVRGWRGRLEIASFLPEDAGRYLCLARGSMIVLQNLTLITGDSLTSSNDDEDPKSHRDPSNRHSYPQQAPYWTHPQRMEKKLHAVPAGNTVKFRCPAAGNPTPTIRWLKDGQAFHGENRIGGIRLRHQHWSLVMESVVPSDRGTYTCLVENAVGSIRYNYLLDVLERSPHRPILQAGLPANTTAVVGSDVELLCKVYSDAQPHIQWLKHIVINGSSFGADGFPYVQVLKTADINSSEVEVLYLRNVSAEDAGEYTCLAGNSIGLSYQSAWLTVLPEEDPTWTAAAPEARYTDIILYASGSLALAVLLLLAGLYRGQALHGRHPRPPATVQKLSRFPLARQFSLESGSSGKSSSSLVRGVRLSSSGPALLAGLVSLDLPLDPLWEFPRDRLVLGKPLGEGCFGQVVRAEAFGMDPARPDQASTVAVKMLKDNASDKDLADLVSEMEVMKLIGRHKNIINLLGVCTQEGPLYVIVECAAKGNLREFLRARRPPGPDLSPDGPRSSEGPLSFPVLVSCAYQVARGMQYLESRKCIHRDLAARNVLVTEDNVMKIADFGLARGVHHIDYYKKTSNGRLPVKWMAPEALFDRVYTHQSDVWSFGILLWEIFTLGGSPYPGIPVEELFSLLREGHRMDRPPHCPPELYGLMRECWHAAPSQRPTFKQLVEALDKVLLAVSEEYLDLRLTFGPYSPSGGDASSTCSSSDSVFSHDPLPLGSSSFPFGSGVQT
Description: Inhibition of FGFR4 (unknown origin)
Data set [7] is described as follows: Stability of the compound in rat plasma assessed as parent compound remaining incubated for 60 mins. Type of data set: ADME, cell-free. As to conditions: read-out: Stability.

Chain of Fibroblast growth factor receptor 2 (P21802 whole entry): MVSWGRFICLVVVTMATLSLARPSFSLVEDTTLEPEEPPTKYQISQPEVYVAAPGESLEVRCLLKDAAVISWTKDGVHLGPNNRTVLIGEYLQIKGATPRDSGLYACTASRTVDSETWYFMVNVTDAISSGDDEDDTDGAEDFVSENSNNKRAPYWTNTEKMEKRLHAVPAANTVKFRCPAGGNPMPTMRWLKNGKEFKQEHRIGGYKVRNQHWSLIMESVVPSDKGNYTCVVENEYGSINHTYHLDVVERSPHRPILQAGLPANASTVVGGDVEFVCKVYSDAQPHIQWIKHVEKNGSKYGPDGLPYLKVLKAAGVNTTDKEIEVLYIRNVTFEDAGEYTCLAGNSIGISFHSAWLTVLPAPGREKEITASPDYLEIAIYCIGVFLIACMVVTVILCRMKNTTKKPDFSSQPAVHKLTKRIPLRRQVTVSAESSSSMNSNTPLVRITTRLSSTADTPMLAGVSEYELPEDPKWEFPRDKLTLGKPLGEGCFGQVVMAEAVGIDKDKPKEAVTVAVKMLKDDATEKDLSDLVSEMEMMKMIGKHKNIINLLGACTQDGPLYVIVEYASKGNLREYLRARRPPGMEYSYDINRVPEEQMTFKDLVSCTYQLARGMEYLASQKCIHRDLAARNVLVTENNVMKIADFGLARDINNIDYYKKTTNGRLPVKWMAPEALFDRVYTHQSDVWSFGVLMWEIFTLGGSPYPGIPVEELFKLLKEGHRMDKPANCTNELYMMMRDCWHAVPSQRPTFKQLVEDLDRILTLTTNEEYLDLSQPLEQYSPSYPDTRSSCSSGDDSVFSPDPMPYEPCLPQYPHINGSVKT
Chain of Fibroblast growth factor receptor 3 (P22607 whole entry): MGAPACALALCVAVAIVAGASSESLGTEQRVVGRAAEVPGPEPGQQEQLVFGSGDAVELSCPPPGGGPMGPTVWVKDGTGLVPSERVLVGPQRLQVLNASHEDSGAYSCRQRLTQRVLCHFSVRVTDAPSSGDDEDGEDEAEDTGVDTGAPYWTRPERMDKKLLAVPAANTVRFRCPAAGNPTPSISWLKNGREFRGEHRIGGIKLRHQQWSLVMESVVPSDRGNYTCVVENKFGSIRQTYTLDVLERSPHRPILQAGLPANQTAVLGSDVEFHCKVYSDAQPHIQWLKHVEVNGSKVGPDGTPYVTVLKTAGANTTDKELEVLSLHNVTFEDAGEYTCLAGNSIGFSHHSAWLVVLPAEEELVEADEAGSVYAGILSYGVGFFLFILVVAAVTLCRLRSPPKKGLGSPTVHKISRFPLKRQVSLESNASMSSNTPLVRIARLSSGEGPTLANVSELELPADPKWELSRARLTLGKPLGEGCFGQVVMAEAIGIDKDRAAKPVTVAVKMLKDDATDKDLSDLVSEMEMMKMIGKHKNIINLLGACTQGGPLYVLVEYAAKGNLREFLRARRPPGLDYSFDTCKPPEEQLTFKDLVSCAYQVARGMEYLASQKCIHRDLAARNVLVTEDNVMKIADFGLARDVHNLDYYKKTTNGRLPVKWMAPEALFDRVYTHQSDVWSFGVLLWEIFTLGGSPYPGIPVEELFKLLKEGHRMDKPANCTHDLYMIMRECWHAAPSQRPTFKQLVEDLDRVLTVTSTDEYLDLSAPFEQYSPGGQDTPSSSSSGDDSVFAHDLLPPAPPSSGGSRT
Chain of Fibroblast growth factor receptor 1 (P11362 whole entry): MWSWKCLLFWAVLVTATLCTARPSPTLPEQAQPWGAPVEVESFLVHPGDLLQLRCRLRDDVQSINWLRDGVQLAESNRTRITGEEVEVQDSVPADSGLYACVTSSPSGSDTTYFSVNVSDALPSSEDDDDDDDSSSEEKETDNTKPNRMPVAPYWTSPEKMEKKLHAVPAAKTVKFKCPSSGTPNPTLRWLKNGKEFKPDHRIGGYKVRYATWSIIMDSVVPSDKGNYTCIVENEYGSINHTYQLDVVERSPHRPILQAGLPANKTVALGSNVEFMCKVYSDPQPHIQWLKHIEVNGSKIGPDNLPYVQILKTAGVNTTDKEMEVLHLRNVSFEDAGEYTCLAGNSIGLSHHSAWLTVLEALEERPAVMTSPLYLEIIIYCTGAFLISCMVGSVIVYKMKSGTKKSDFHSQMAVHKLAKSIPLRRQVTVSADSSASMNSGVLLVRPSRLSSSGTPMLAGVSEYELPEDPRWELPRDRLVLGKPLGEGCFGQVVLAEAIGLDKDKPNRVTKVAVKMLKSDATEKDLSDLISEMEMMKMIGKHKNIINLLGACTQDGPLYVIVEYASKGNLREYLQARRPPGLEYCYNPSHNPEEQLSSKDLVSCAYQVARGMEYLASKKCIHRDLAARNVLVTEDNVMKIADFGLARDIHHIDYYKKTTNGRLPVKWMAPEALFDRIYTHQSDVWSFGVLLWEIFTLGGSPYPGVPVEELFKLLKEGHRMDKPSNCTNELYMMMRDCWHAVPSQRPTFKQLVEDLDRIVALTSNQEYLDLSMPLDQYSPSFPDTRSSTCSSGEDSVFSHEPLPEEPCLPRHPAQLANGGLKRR
Description for Huh-7: Antiproliferative activity against human Huh-7 cells assessed as inhibition of cell proliferation measured after 72 hrs by SRB assay

Broadly, the IC50 is the midpoint of a concentration-inhibition curve. Low values mean greater potency, high ones weaker potency. The compound `C=CC(=O)Nc1cc(CCN2CCC(NC(=O)OC(C)(C)C)CC2)cc(C)c1Nc1ncc2cc(-c3c(Cl)c(OC)cc(OC)c3Cl)ccc2n1` displayed an IC50 in the data set on Huh-7 of 4.48 µM.

On to `C=CC(=O)Nc1cc(S(C)(=O)=O)ccc1Nc1ncc2cc(-c3c(Cl)c(OC)cc(OC)c3Cl)ccc2n1`, for which the IC50 in [1] amounted to 0.028 µM; in data set [2], 0.015 µM; in [3], 0.102 µM; in the data set with Huh-7, 2.16 µM.

In the data set with Huh-7, `C=CC(=O)Nc1cc(CCN2CCN(C)CC2)cc(C)c1Nc1ncc2cc(-c3c(Cl)c(OC)cc(OC)c3Cl)ccc2n1` returned a half-inhibitory concentration (IC50) of 7.14 µM.

In the data set on Huh-7, `C=CC(=O)Nc1cc(CCCN2CCCC2)cc(C)c1Nc1ncc2cc(-c3c(Cl)c(OC)cc(OC)c3Cl)ccc2n1` gave an IC50 of 4.26 µM. Against the preceding compound, the IC50 is about 1.7-fold lower.

Compound `C=CC(=O)Nc1cc(CCN2CCN(C3COC3)CC2)cc(C)c1Nc1ncc2cc(-c3c(Cl)c(OC)cc(OC)c3Cl)ccc2n1` displayed an IC50 in the data set on Huh-7 of 8.48 µM.

Compound `C=CC(=O)Nc1cc(S(=O)(=O)NC(=O)C=C)ccc1Nc1ncc2cc(-c3c(Cl)c(OC)cc(OC)c3Cl)ccc2n1` had an IC50 in the data set with Huh-7 of 4.75 µM.

Take `C=CC(=O)Nc1cc(CCN2CCCC2)cc(C)c1Nc1ncc2cc(-c3c(Cl)c(OC)cc(OC)c3Cl)ccc2n1`: in the data set on Huh-7, the IC50 came out at 4.52 µM.

On to `C=CC(=O)Nc1cccc(C)c1Nc1ncc2cc(-c3c(Cl)c(OC)cc(OC)c3Cl)ccc2n1`, for which the remaining at 1 h in data set [4] turned out to be 15%. Also, in the data set on Hep 3B2, the result was Active. The 50% inhibitory concentration (IC50) in the data set on Huh-7 is 0.929 µM.

In the case of `C=CC(=O)Nc1cc(CCN2CCN(CCOC)CC2)cc(C)c1Nc1ncc2cc(-c3c(Cl)c(OC)cc(OC)c3Cl)ccc2n1`, the concentration for half-maximal inhibition (IC50) in the data set with Huh-7 was found to be 4.18 µM.

As a reminder, the inhibition is the share of the control response that was lost under treatment. Regarding `C=CC(=O)Nc1cc(CCCN(C)C)cc(C)c1Nc1ncc2cc(-c3c(Cl)c(OC)cc(OC)c3Cl)ccc2n1`, the inhibition in data set [5] came to 55%. In addition, 2.24 µM corresponded to half-maximal inhibition with Huh-7 (IC50).

As for `C=CC(=O)Nc1cc(SC)ccc1Nc1ncc2cc(-c3c(Cl)c(OC)cc(OC)c3Cl)ccc2n1`, the IC50 came out at 0.039 µM in data set [1], 0.024 µM in data set [2], 0.079 µM in [3] and 0.936 µM with Huh-7.

Consider `C=CC(=O)Nc1cc(CCN2CCCC2CN2CCCC2)cc(C)c1Nc1ncc2cc(-c3c(Cl)c(OC)cc(OC)c3Cl)ccc2n1` (centres undefined), for which, in the data set with Huh-7, the IC50 was 3.56 µM.

In turn, `C=CC(=O)Nc1cc(CCO)cc(C)c1Nc1ncc2cc(-c3c(Cl)c(OC)cc(OC)c3Cl)ccc2n1` displayed an IC50 in the data set with Huh-7 of 2.41 µM.

`C=CC(=O)Nc1cc(CCN2CCOCC2)cc(C)c1Nc1ncc2cc(-c3c(Cl)c(OC)cc(OC)c3Cl)ccc2n1` had a concentration for half-maximal inhibition (IC50) in the data set on Huh-7 of 13.3 µM.

For `C=CC(=O)Nc1cc(S(C)(=O)=O)cc(C)c1Nc1ncc2cc(-c3c(Cl)c(OC)cc(OC)c3Cl)ccc2n1`, the IC50 in data set [1] is 0.886 µM; in data set [2] it was 0.379 µM; in data set [3] it was 3.87 µM; in the data set on Huh-7, 1.94 µM.

As to `C=CC(=O)N[C@H]1CCOC[C@H]1Nc1ncc2cc(-c3c(Cl)c(OC)cc(OC)c3Cl)ccc2n1` [FISOGATINIB], the results for the IC50 in [2], in data set [3] and in [6] were 1.2 µM, 2.2 µM and 0.005 µM, respectively.

With `C=CC(=O)Nc1cc(S(N)(=O)=O)cc(C)c1Nc1ncc2cc(-c3c(Cl)c(OC)cc(OC)c3Cl)ccc2n1`, the figures for the remaining at 1 h in [4] and in data set [7] were 50% and 80%, respectively. Also, the IC50 in data set [1] worked out at 0.787 µM; in [2] it was 0.341 µM; in data set [3] it was 3.92 µM; in the data set with Huh-7, 1.67 µM. The outcome in the data set with Hep 3B2 was Active.

`C=CC(=O)Nc1cc(CCN(CC)CCC)cc(C)c1Nc1ncc2cc(-c3c(Cl)c(OC)cc(OC)c3Cl)ccc2n1`: the midpoint of inhibition with Huh-7, the IC50, lay at 4.33 µM.

In the data set on Huh-7, `C=CC(=O)Nc1cc(CCN2CCc3ccccc3C2)cc(C)c1Nc1ncc2cc(-c3c(Cl)c(OC)cc(OC)c3Cl)ccc2n1` gave an IC50 of 4.45 µM.
